Data: ChEMBL document CHEMBL3872234, “Polyfluorinated salicylic acid derivatives as analogs of known drugs: Synthesis, molecular docking and biological evaluation” (Bioorg Med Chem, 2017)
Several values for one entry are separate records, joined by “and”; a condition that tells them apart may be missing. Identical values can stand only once.

Columns and labels:
[1] = tested on: Rattus norvegicus; experiment: Antiinflammatory activity in rat carrageenan-induced paw edema model assessed as inhibition of paw swelling at 25 mg/kg, ip administered 30 mins prior to carrageenan challenge measured after 5 hrs; type: functional
[2] = tested on: Rattus norvegicus; experiment: Antiinflammatory activity in rat carrageenan-induced paw edema model assessed as inhibition of paw swelling at 25 mg/kg, ip administered 30 mins prior to carrageenan challenge measured after 3 hrs; type: functional
[3] = tested on: Rattus norvegicus; experiment: Analgesic activity in rat assessed as latent period prolongation at 25 mg/kg, ip measured after 1 hr by hot plate test; type: functional
[4] = Permeability of the compound at pH 5 after 2 hrs by PAMPA; type: ADME; details: read-out: Peff
[5] = Permeability of the compound at pH 7.4 after 2 hrs by PAMPA; type: ADME; details: read-out: Peff
[6] = Permeability of the compound at pH 6.2 after 2 hrs by PAMPA; type: ADME; details: read-out: Peff
[7] = molecular target: T1, Prostaglandin G/H synthase 1 (Ovis aries) (UniProt P05979); experiment: Inhibition of ovine COX-1 assessed as reduction in PGG2 production using ADHP as substrate at 2 uM incubated for 5 mins followed by substrate addition measured after 2 mins by fluorescence assay
T1 sequence (whole entry): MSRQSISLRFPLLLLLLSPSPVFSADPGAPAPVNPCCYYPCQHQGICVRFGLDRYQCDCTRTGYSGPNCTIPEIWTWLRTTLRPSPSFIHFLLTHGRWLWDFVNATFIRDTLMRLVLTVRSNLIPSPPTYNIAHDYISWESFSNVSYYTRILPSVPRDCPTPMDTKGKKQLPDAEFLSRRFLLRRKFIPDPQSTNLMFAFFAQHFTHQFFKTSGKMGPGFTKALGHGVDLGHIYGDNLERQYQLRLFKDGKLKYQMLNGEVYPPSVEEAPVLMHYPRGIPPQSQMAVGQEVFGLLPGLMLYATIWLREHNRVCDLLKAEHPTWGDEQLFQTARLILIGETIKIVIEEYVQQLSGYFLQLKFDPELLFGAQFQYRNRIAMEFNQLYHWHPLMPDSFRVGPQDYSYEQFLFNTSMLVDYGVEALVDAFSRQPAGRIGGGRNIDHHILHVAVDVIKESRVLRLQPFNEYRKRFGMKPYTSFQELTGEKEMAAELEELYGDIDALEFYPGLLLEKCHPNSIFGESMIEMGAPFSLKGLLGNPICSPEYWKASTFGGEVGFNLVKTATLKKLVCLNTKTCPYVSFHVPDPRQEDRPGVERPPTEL

[8] = molecular target: T1, Prostaglandin G/H synthase 1 (Ovis aries); experiment: Inhibition of ovine COX-1 assessed as reduction in PGG2 production using ADHP as substrate at 200 uM incubated for 5 mins followed by substrate addition measured after 2 mins by fluorescence assay
[9] = Acute toxicity in CD-1 mouse assessed as viability at 50 mg/kg, ip measured up to 14 days; type: organism-based; details: in vivo, read-out: Activity
[10] = Acute toxicity in CD-1 mouse assessed as viability at 150 mg/kg, ip measured up to 14 days; type: organism-based; details: in vivo
[11] = Acute toxicity in CD-1 mouse assessed as viability at 300 mg/kg, ip measured up to 14 days; type: organism-based; details: in vivo
[12] = tested on: Rattus norvegicus; experiment: Antiinflammatory activity in rat carrageenan-induced paw edema model assessed as inhibition of paw swelling at 50 mg/kg, ip administered 30 mins prior to carrageenan challenge measured after 3 hrs; type: functional
[13] = tested on: Rattus norvegicus; experiment: Antiinflammatory activity in rat carrageenan-induced paw edema model assessed as inhibition of paw swelling at 50 mg/kg, ip administered 30 mins prior to carrageenan challenge measured after 5 hrs; type: functional
[14] = Acute toxicity in CD-1 mouse assessed as viability at 100 mg/kg, ip measured up to 14 days; type: organism-based; details: in vivo
[15] = Drug level in prisma HT buffer treated with 2-acetoxy-3,4,5-trifluorobenzoic acid at pH 5 to 7.4 by UV absorbance assay; type: toxicity
[16] = Drug level in prisma HT buffer treated with 2-acetoxy-3,4,5,6-tetrafluorobenzoic acid at pH 5 to 7.4 by UV absorbance assay; type: toxicity
[17] = Acute toxicity in CD-1 mouse assessed as viability at 75 mg/kg, ip measured up to 14 days; type: organism-based; details: in vivo, read-out: Activity

Row | Compound | inhibition in vivo at 25 mg/kg [1] [%] | inhibition in vivo at 25 mg/kg [2] [%] | Activity [3] | inhibition [7] | survival at 336 h ([10]; read-out: Activity) [%] | survival at 336 h ([11]; read-out: Activity) [%] | other results
1 | O=C(O)Cc1ccccc1Nc1c(Cl)cccc1Cl [DICLOFENAC] | 54.4 | 64.4 | 56 - 102.3% |  |  |  | 
2 | O=C([O-])c1c(O)c(F)c(F)c(F)c1F.[Na+] |  |  |  |  |  |  | Papp at 2 h [4]: 22.1 ×10⁻⁶ cm/s; Papp at 2 h [5]: 0.1 ×10⁻⁶ cm/s; Papp at 2 h [6]: 1.8 ×10⁻⁶ cm/s
3 | O=C(O)c1c(O)c(F)c(F)c(F)c1F [listing 1 of 2 here] |  |  |  | 34% and 59% |  |  | inhibition [8]: 39% and 31%
4 | COC(=O)c1c(O)c(F)c(F)c(F)c1F |  |  |  | 47% | 90 | 0 | survival at 336 h [9]: 100%; inhibition [8]: 48%
5 | O=C([O-])c1cc(F)c(F)c(F)c1O.[Na+] |  |  | 66.8% |  | 66 |  | 
6 | CC(=O)Oc1c(F)c(F)c(F)c(F)c1C(=O)O | 56.8 | 42.9 | 83.2% |  | 80 | 0 | inhibition in vivo at 50 mg/kg [12]: 65.6%; survival at 336 h [9]: 100%; inhibition in vivo at 50 mg/kg [13]: 45.1%
7 | CC(=O)Oc1cc(F)c(F)cc1C(=O)O |  |  |  |  | 100 |  | 
8 | O=C(O)c1c(O)c(F)cc(F)c1F | 41.7 | 47 | 60.3% |  | 66 |  | 
9 | CC(=O)Oc1c(C(=O)O)cc(F)c(F)c1F |  |  | 71.2% | 35% | 70 | 0 | survival at 336 h [9]: 100%; inhibition [8]: 18%
10 | CC(=O)Oc1ccccc1C(=O)O [ASPIRIN] | 29.4 to 44.9 | 30.6 to 56.2 | 57.9% | 31% |  |  | Papp at 2 h [4]: 5.1 ×10⁻⁶ cm/s; Papp at 2 h [5]: 4.7 ×10⁻⁶ cm/s; survival at 336 h [10]: 100%; survival at 336 h [11]: 33%; inhibition [8]: 36%; survival at 336 h [14]: 100%
11 | O=C(O)c1cc(F)c(F)c(F)c1O |  |  | 178.1% |  |  | 0 | inhibition in vivo at 50 mg/kg [12]: 46.7%; inhibition in vivo at 50 mg/kg [13]: 46.9%; Drug metabolism [15]: Metabolite_Notdetected
12 | COc1c(F)c(F)c(F)c(F)c1C(=O)O | 46.9 | 53.8 | 100.8% | 48% |  |  | inhibition [8]: 64%
13 | COc1c(C(=O)O)cc(F)c(F)c1F |  |  | 73.2% | < 10% | 80 | 0 | inhibition in vivo at 50 mg/kg [12]: 40%; survival at 336 h [9]: 100%; inhibition in vivo at 50 mg/kg [13]: 30%
14 | O=C(O)c1c(O)c(F)c(F)c(F)c1F [listing 2 of 2 here] | 33.1 |  | 143.2% |  |  | 0 | inhibition in vivo at 50 mg/kg [12]: 64%; Papp at 2 h [4]: 18.6 ×10⁻⁶ cm/s; Papp at 2 h [5]: 0.1 ×10⁻⁶ cm/s; Drug metabolism [16]: Metabolite_Notdetected; Papp at 2 h [6]: 0.5 ×10⁻⁶ cm/s; inhibition in vivo at 50 mg/kg [13]: 56.5%; survival at 336 h [17]: 66%
15 | CC(=O)Oc1c(C(=O)O)ccc(F)c1F | 35.3 |  | 98.8% |  |  | 33 | 
16 | CC(=O)Oc1c(F)cc(F)c(F)c1C(=O)O | 32.7 | 37.3 | 86.5% |  |  |  | 
17 | COC(=O)c1cc(F)c(F)c(F)c1O |  |  |  |  | 100 | 0 | inhibition in vivo at 50 mg/kg [12]: 40.3%; survival at 336 h ([14]; read-out: Activity): 100%
18 | O=C(O)c1ccc(F)c(F)c1O |  |  |  |  | 66 | 33 | survival at 336 h ([14]; read-out: Activity): 66%
19 | O=C(O)c1cc(F)c(F)cc1O |  |  | 60.6% |  | 66 | 33 | survival at 336 h ([14]; read-out: Activity): 100%
